According to patent US8916599B2, “1H-benz imidazole-5-carboxamides as anti-inflammatory agents” (Orexo AB, priority 2008, dated 2014):

biological target: T1, recombinant human mPGES-1 (Homo sapiens, UniProt O14684); assay: mPGES-1 inhibition test (microsomes, PGH2 substrate, HTRF detection of PGE2); type: biochemical; conditions: inhibition of mPGES-1 at 1 μM (marked in cell)
T1 construct: made in house; host or cells: Rosetta E. coli (microsomal/membrane fraction)
T1 sequence (O14684 1-152): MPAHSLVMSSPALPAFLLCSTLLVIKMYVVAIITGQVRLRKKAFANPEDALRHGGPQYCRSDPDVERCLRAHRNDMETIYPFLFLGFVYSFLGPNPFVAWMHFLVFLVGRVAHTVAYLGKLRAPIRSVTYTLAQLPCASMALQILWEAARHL
Outline: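 Microsomes from E. coli expressing recombinant human mPGES-1 in 0.1 M KPi pH 7.4 with 2.5 mM GSH were preincubated with inhibitor 25 min at room temperature. PGH2 was then added, and the reaction was stopped after 1 min with acidified FeCl2. PGE2 was quantified by HTRF (665/620 nm ratio) against a synthetic PGE2 standard curve.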

Row | inhibition at 1 µM [%] | SMILES
1 | 100 | COc1cc2c(cc1C(=O)N[C@H]1CC[C@H](C(F)(F)F)CC1)nc(Nc1c(Cl)ccc(Cl)c1F)n2C [Example 643, 2-(3,6-Dichloro-2-fluoro-phenylamino)-6-methoxy-N-(trans-4-trifluoromethyl-cyclohex-1-yl)-1-methyl-1H-benzimidazole-5-carboxamide]
2 | 98 | COc1cc2[nH]c(Nc3c(Cl)ccc(C)c3F)nc2cc1C(=O)NC1CCCCC1 [Example 628, 2-(6-Chloro-2-fluoro-3-methyl-phenylamino)-6-methoxy-N-cyclohexyl-1H-benzimidazole-5-carboxamide]
3 | 94 | COc1cc2c(cc1C(=O)NC1CCC(C)(C)CC1)nc(Nc1c(F)c(F)cc(F)c1F)n2C [Example 652, 2-(2,3,5,6-tetrafluoro-phenylamino)-6-methoxy-N-(4,4-dimethy-cyclohex-1-yl)-1-methyl-1H-benzimidazole-5-carboxamide]
4 | 100 | COc1cc2c(cc1C(=O)NC1CCC(C)(C)CC1)nc(Nc1c(Cl)ccc(C)c1F)n2C [Example 650, 2-(6-Chloro-2-fluoro-3-methyl-phenylamino)-6-methoxy-N-(4,4-dimethyl-cyclohex-1-yl)-1-methyl-1H-benzimidazole-5-carboxamide]

same assay, conditions: inhibition of mPGES-1 at 10 μM

Row | SMILES | inhibition at 10 µM [%]
5 | Cc1ccc(NC(=O)c2ccc3[nH]c(Nc4c(Cl)cccc4Cl)nc3c2)cc1 [Example 5, 2-(2,6-Dichloro-phenylamino)-1H-benzimidazole-5-carboxylic acid p-tolylamide] | 100
6 | N#CC1(NC(=O)c2ccc3[nH]c(Nc4c(Cl)cccc4Cl)nc3c2)CCCCC1 [Example 231, 2-(2,6-Dichloro-phenylamino)-1H-benzimidazole-5-carboxylic acid (1-cyano-cyclohexyl)-amide] | 86
7 | O=C(Nc1ccccc1)c1ccc2[nH]c(Nc3c(F)cccc3Cl)nc2c1 [Example 19, 2-(2-Chloro-6-fluoro-phenylamino)-1H-benzimidazole-5-carboxylic acid-phenylamide] | 91
8 | O=C(NC1CCCCC1C(F)(F)F)c1ccc2[nH]c(Nc3c(Cl)cccc3Cl)nc2c1 (stereo not drawn) [Example 228, 2-(2,6-Dichloro-phenylamino)-1H-benzimidazole-5-carboxylic acid (2-trifluoromethyl-cyclohexyl)-amide] | 86
9 | Cc1cc(Br)cnc1NC(=O)c1ccc2[nH]c(Nc3c(Cl)cccc3Cl)nc2c1 [Example 183, 2-(2,6-Dichloro-phenylamino)-1H-benzimidazole-5-carboxylic acid (5-bromo-3-methyl-pyridin-2-yl)-amide] | 100
10 | CCc1ccnc(NC(=O)c2ccc3[nH]c(Nc4c(Cl)cccc4Cl)nc3c2)c1 [Example 120, 2-(2,6-Dichloro-phenylamino)-1H-benzimidazole-5-carboxylic acid (4-ethyl-pyridin-2-yl)-amide] | 96
11 | Cn1c(Nc2ccccc2OC(F)(F)F)nc2cc(C(=O)Nc3ccc(Br)cc3)ccc21 [Example 320, 1-Methyl-2-(2-trifluoromethoxy-phenylamino)-1H-benzimidazole-5-carboxylic acid (4-bromo-phenyl)-amide] | 100
12 | O=C(NCCc1cccnc1)c1ccc2[nH]c(Nc3c(Cl)cccc3Cl)nc2c1 [Example 232, 2-(2,6-Dichloro-phenylamino)-1H-benzimidazole-5-carboxylic acid (2-pyridin-3-yl-ethyl)-amide] | 91
13 | Cn1c(Nc2c(Cl)cccc2Cl)nc2cc(C(=O)Nc3cc(C(F)(F)F)ccn3)ccc21 [Example 203, 2-(2,6-Dichloro-phenylamino)-1-methyl-1H-benzimidazole-5-carboxylic acid (4-trifluoromethyl-pyridin-2-yl)-amide] | 100
14 | O=C(Nc1cccc(Cl)c1)c1cc2[nH]c(Nc3c(Cl)cccc3Cl)nc2cc1F [Example 143, 2-(2,6-Dichloro-phenylamino)-6-fluoro-3H-benzimidazole-5-carboxylic acid (3-chloro-phenyl)-amide] | 100
15 | Cn1c(Nc2c(Cl)cccc2Cl)nc2cc(C(=O)NC3CC4CCCCC4C3)c(F)cc21 (stereo not drawn) [Example 163, 2-(2,6-Dichloro-phenylamino)-6-fluoro-1-methyl-1H-benzimidazole-5-carboxylic acid (octahydro-inden-2-yl)-amide] | 100
16 | O=C(Nc1cc(Cl)ccn1)c1ccc2c(c1)nc(Nc1c(Cl)cccc1Cl)n2CC1CNC1 [Example 209, 2-(2,6-Dichloro-phenylamino)-(1-azetidin-3-ylmethyl)-1H-benzimidazole-5-carboxylic acid (4-chloro-pyridin-2-yl)-amide (trifluoroacetate)] | 100
17 | O=C(Nc1ccc(Cl)c(Cl)c1Cl)c1ccc2[nH]c(Nc3c(Cl)cccc3Cl)nc2c1 [Example 312, 2-(2,6-Dichloro-phenylamino)-1H-benzimidazole-5-carboxylic acid (2,3,4-trichloro-phenyl)-amide] | 100
18 | O=C(NC1CCC2(CC1)CC2)c1cc2nc(Nc3c(F)cccc3Cl)[nH]c2cc1F [Example 399, 2-(2-Chloro-6-fluorophenylamino)-6-fluoro-N-(spiro[2.5]octan-6-yl)-1H-benzimidazole-5-carboxamide] | 99
19 | CN(C)CCn1c(Nc2c(Cl)cccc2Cl)nc2cc(C(=O)Nc3cc(Cl)ccn3)ccc21 [Example 273, 2-(2,6-Dichloro-phenylamino)-1-(2-dimethylamino-ethyl)-1H-benzimidazole-5-carboxylic acid (4-chloro-pyridin-2-yl)-amide] | 100
20 | Cn1c(Nc2c(Cl)cccc2Cl)nc2cc(C(=O)NCc3cc(C(F)(F)F)ccn3)ccc21 [Example 245, 2-(2,6-Dichloro-phenylamino)-1-methyl-1H-benzimidazole-5-carboxylic acid (4-trifluoromethyl-pyridin-2-ylmethyl)-amide] | 97
21 | Cn1c(Nc2c(Cl)cccc2Cl)nc2cc(C(=O)NC3CCCCCC3)ccc21 [Example 238, 2-(2,6-Dichloro-phenylamino)-1-methyl-1H-benzimidazole-5-carboxylic acid cycloheptylamide] | 100
22 | O=C(Nc1cc(C(F)(F)F)ccc1Cl)c1ccc2[nH]c(Nc3c(Cl)cccc3Cl)nc2c1 [Example 292, 2-(2,6-Dichloro-phenylamino)-1H-benzimidazole-5-carboxylic acid (2-chloro-5-trifluoromethyl-phenyl)-amide] | 100
23 | CS(=O)(=O)NCCn1c(Nc2c(Cl)cccc2Cl)nc2cc(C(=O)Nc3cc(Cl)ccn3)ccc21 [Example 205, 2-(2,6-Dichloro-phenylamino)-1-(2-methanesulfonylamino-ethyl)-1H-benzimidazole-5-carboxylic acid (4-chloro-pyridin-2-yl)-amide] | 97
24 | COc1cc2[nH]c(Nc3c(Cl)cccc3Cl)nc2cc1C(=O)NCc1ncccc1C(F)(F)F [Example 383, 2-(2,6-Dichlorophenylamino)-6-methoxy-N-((3-trifluoromethyl-pyridin-2-yl)-methyl)-1H-benzimidazole-5-carboxamide] | 100

The next lines start with the values.

Row | inhibition at 10 µM [%] | SMILES
25 | 85 | Cn1c(Nc2c(F)cccc2Cl)nc2cc(C(=O)NCC3CC3)c(F)cc21 [Example 546, 2-(2-Chloro-6-fluorophenylamino)-N-(cyclopropylmethyl)-6-fluoro-1-methyl-1H-benzimidazole-5-carboxamide]
26 | 91 | CC(C)Oc1cc2[nH]c(Nc3c(Cl)ccc(Cl)c3F)nc2cc1C(=O)NC1CCC(C)(C)CC1 [Example 618, 2-(3,6-Dichloro-2-fluoro-phenylamino)-6-isopropoxy-N-(4,4-dimethyl-cyclohex-1-yl)-1H-benzimidazole-5-carboxamide]
27 | 94 | CN(C)c1cccc(F)c1Nc1nc2cc(C(=O)Nc3ccc(Br)cc3)ccc2n1C [Example 551, N-(4-Bromophenyl)-2-(2-dimethylamino-6-fluorophenylamino)-1-methyl-1H-benzimidazole-5-carboxamide]
28 | 85 | CN(C)c1ccnc(NC(=O)c2ccc3c(c2)nc(Nc2c(Cl)cccc2Cl)n3C)c1 [compound 559]
29 | 94 | N#Cc1ccnc(NC(=O)c2ccc3[nH]c(Nc4c(Cl)cccc4Cl)nc3c2)c1 [Example 539, N-(4-Cyanopyridin-2-yl)-2-(2,6-dichlorophenylamino)-1H-benzimidazole-5-carboxamide]
30 | 100 | COc1cc2[nH]c(Nc3c(Cl)cc(F)cc3Cl)nc2cc1C(=O)Nc1ccc(Br)cc1 [Example 581, 2-(2,6-Dichloro-4-fluoro-phenylamino)-6-methoxy-N-(4-bromo-phenyl)-1H-benzimidazole-5-carboxamide]
31 | 84 | Cn1c(Nc2c(Cl)cccc2Cl)nc2cc(C(=O)Nc3cc(N4CCCC4)ccn3)c(F)cc21 [Example 554, 2-(2,6-Dichlorophenylamino)-6-fluoro-1-methyl-N-(4-(pyrrolidin-1-yl)-pyridin-2-yl)-1H-benzimidazole-5-carboxamide]
32 | 100 | COc1cc2c(cc1C(=O)Nc1ccc(Br)cc1)nc(Nc1cc(C(F)(F)F)ccc1C(F)(F)F)n2C [Example 640, 2-(2,5-Di-(trifluoromethyl)-phenylamino)-N-(4-bromphenyl)-6-methoxy-1-methyl-1H-benzimidazol-5-carboxamide]
33 | 95 | Cn1c(Nc2ccc(Cl)cc2Cl)nc2cc(C(=O)Nc3ccc(Br)cc3)ccc21 [Example 519, N-(4-Bromophenyl)-2-(2,4-dichlorophenylamino)-1-methyl-1H-benzimidazole-5-carboxamide]
